From PubChem BioAssay AID1963440 (Molecular Pharmacology Branch, DTP, NCI, 2024)

System: NCI-H1417 complex spheroids, growth % test/control
Experiment: Anticancer human tumor NCI-H1417 cell line growth inhibition [Asc];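 also: spheroids exposed to compounds for 7 days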;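 as to viability, T/C: 100% = DMSO vehicle control wells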
Settings: for IC50: curve of first compound; for viability, T/C: stronger effect = lower value
Method in brief: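 Tumor cells were grown as complex spheroids with human endothelial cells (HUVEC) and human mesenchymal stem cells as stroma. Agents were tested alone and in combination, in half-log steps down from the clinical Cmax, or from 10 microM where Cmax was unknown.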

`Cc1nc(N2CCC3(CC2)COC(C)C3N)c(CO)nc1Sc1ccnc(N)c1Cl` (configuration not stated) + CCN1C(C(=O)NC23CCC(C(=O)O)(CC2)CC3)C(c2cccc(Cl)c2F)C2(C(=O)Nc3cc(Cl)ccc32)C12CCCCC2 was tested, and the IC50 (second compound 0.03 µM) was > 3 µM, the IC50 (second compound 0.0949 µM) was > 3 µM and the IC50 (second compound 0.3 µM) was > 3 µM. The IC50 (second compound 0.949 µM) was > 3 µM, the IC50 (second compound 3 µM) was > 3 µM and the viability, T/C (second compound 0.03 µM, first compound 0.00949 µM) was 106%. It also gave a viability, T/C (second compound 0.03 µM, first compound 0.03 µM) of 104%, a viability, T/C (second compound 0.03 µM, first compound 0.0949 µM) of 92.1% and a viability, T/C (second compound 0.03 µM, first compound 0.3 µM) of 86.1%. For the same molecule, the viability, T/C (second compound 0.03 µM, first compound 0.949 µM) was 90.4%, the viability, T/C (second compound 0.03 µM, first compound 3 µM) was 82.6% and the viability, T/C (second compound 0.0949 µM, first compound 0.00949 µM) was 92.8%. It also gave a viability, T/C (second compound 0.0949 µM, first compound 0.03 µM) of 89.5%, a viability, T/C (second compound 0.0949 µM, first compound 0.0949 µM) of 91.4% and a viability, T/C (second compound 0.0949 µM, first compound 0.3 µM) of 82.1%. For the same molecule, the viability, T/C (second compound 0.0949 µM, first compound 0.949 µM) was 87.8%, the viability, T/C (second compound 0.0949 µM, first compound 3 µM) was 79.4% and the viability, T/C (second compound 0.3 µM, first compound 0.00949 µM) was 98.6%. For the same molecule, the viability, T/C (second compound 0.3 µM, first compound 0.03 µM) was 104%, the viability, T/C (second compound 0.3 µM, first compound 0.0949 µM) was 106% and the viability, T/C (second compound 0.3 µM, first compound 0.3 µM) was 82.7%. The viability, T/C (second compound 0.3 µM, first compound 0.949 µM) was 92.9%, the viability, T/C (second compound 0.3 µM, first compound 3 µM) was 82.5% and the viability, T/C (second compound 0.949 µM, first compound 0.00949 µM) was 103%. For the same molecule, the viability, T/C (second compound 0.949 µM, first compound 0.03 µM) was 93.9%, the viability, T/C (second compound 0.949 µM, first compound 0.0949 µM) was 97.4% and the viability, T/C (second compound 0.949 µM, first compound 0.3 µM) was 78.3%. It also gave a viability, T/C (second compound 0.949 µM, first compound 0.949 µM) of 73.3%, a viability, T/C (second compound 0.949 µM, first compound 3 µM) of 84.4% and a viability, T/C (second compound 3 µM, first compound 0.00949 µM) of 88.9%. For the same molecule, the viability, T/C (second compound 3 µM, first compound 0.03 µM) was 95%, the viability, T/C (second compound 3 µM, first compound 0.0949 µM) was 96.5% and the viability, T/C (second compound 3 µM, first compound 0.3 µM) was 99.7%. The viability, T/C (second compound 3 µM, first compound 0.949 µM) was 79.9% and the viability, T/C (second compound 3 µM, first compound 3 µM) was 80.3%.
`C#Cc1c(F)ccc2cc(O)cc(-c3ncc4c(N5CC6CCC(C5)N6)nc(OCC56CCCN5CC(F)C6)nc4c3F)c12` (configuration not stated) + CNC(C)C(=O)NC1CN(S(=O)(=O)c2cccc(S(=O)(=O)N3CCC4CCC(C(=O)NC(c5ccccc5)c5ccccc5)N4C(=O)C(NC(=O)C(C)NC)C3)c2)CCC2CCC(C(=O)NC(c3ccccc3)c3ccccc3)N2C1=O was tested, and the IC50 (second compound 0.00316 µM) was > 10 µM, the IC50 (second compound 0.01 µM) was > 10 µM and the IC50 (second compound 0.0316 µM) was > 10 µM. The IC50 (second compound 0.1 µM) was > 10 µM, the IC50 (second compound 0.316 µM) was > 10 µM and the IC50 (second compound 1 µM) was > 10 µM. The viability, T/C (second compound 0.00316 µM, first compound 0.0316 µM) was 96.1%, the viability, T/C (second compound 0.00316 µM, first compound 0.1 µM) was 87.6% and the viability, T/C (second compound 0.00316 µM, first compound 0.316 µM) was 99.3%. For the same molecule, the viability, T/C (second compound 0.00316 µM, first compound 1 µM) was 95.7%, the viability, T/C (second compound 0.00316 µM, first compound 3.16 µM) was 81.7% and the viability, T/C (second compound 0.00316 µM, first compound 10 µM) was 65%. For the same molecule, the viability, T/C (second compound 0.01 µM, first compound 0.0316 µM) was 98%, the viability, T/C (second compound 0.01 µM, first compound 0.1 µM) was 90% and the viability, T/C (second compound 0.01 µM, first compound 0.316 µM) was 82.2%. For the same molecule, the viability, T/C (second compound 0.01 µM, first compound 1 µM) was 98.1%, the viability, T/C (second compound 0.01 µM, first compound 3.16 µM) was 93.2% and the viability, T/C (second compound 0.01 µM, first compound 10 µM) was 66.4%. For the same molecule, the viability, T/C (second compound 0.0316 µM, first compound 0.0316 µM) was 101%, the viability, T/C (second compound 0.0316 µM, first compound 0.1 µM) was 90.6% and the viability, T/C (second compound 0.0316 µM, first compound 0.316 µM) was 91.1%. The viability, T/C (second compound 0.0316 µM, first compound 1 µM) was 98.2%, the viability, T/C (second compound 0.0316 µM, first compound 3.16 µM) was 88.9% and the viability, T/C (second compound 0.0316 µM, first compound 10 µM) was 69.3%. The viability, T/C (second compound 0.1 µM, first compound 0.0316 µM) was 89.5%, the viability, T/C (second compound 0.1 µM, first compound 0.1 µM) was 91.5% and the viability, T/C (second compound 0.1 µM, first compound 0.316 µM) was 86%. It also gave a viability, T/C (second compound 0.1 µM, first compound 1 µM) of 97.6%, a viability, T/C (second compound 0.1 µM, first compound 3.16 µM) of 91.2% and a viability, T/C (second compound 0.1 µM, first compound 10 µM) of 69.8%. The viability, T/C (second compound 0.316 µM, first compound 0.0316 µM) was 82.3%, the viability, T/C (second compound 0.316 µM, first compound 0.1 µM) was 80.9% and the viability, T/C (second compound 0.316 µM, first compound 0.316 µM) was 87.1%. For the same molecule, the viability, T/C (second compound 0.316 µM, first compound 1 µM) was 86.7%, the viability, T/C (second compound 0.316 µM, first compound 3.16 µM) was 91.2% and the viability, T/C (second compound 0.316 µM, first compound 10 µM) was 64.6%. For the same molecule, the viability, T/C (second compound 1 µM, first compound 0.0316 µM) was 97.5%, the viability, T/C (second compound 1 µM, first compound 0.1 µM) was 80.9% and the viability, T/C (second compound 1 µM, first compound 0.316 µM) was 89.6%. For the same molecule, the viability, T/C (second compound 1 µM, first compound 1 µM) was 84.3%, the viability, T/C (second compound 1 µM, first compound 3.16 µM) was 86.7% and the viability, T/C (second compound 1 µM, first compound 10 µM) was 66.8%.
